Measurements taken from ChEMBL document CHEMBL1857833, “Screening and optimization of specific chemical series against human African Trypanosomiasis (HAT)”.
Values after ≈ are worked out from the molar mass of the structure shown. Values joined by “and” are separate entries in the source; they are usually repeats but may differ in a detail not shown here. Identical values can stand only once.

Test system: Trypanosoma brucei
Assay: DNDI: Inhibition of Human African Trypanosomiasis, SBRI 427, in vitro
Type: functional, organism-based
Details: not given

Row | Structure (SMILES) | IC50
1 | CCOc1ccccc1-c1nc(CNC2CCCCCCCCCCC2)co1 | 1.37 µg/mL (≈ 3.56 µM)
2 | CCOc1ccc(-c2nc(CNC(C)C3CCCCC3)co2)cc1 (stereo unspecified) | 1.96 µg/mL (≈ 5.97 µM)
3 | CC(C)(C)c1ccc(-c2nc(CNCC3CC3)co2)cc1 | 1.69 µg/mL (≈ 5.94 µM)
4 | CN(Cc1coc(-c2cccc3ccccc23)n1)C1CCCCC1 | 1.3 µg/mL (≈ 4.06 µM)
5 | CCN(CCN(C)C)Cc1coc(-c2ccc(C(C)(C)C)cc2)n1 | 1.87 µg/mL (≈ 5.68 µM)
6 | CCC1CCCCN1Cc1coc(-c2cccc3ccccc23)n1 (stereo unspecified) | 1.83 µg/mL (≈ 5.71 µM)
7 | CC(NCc1coc(-c2cccc3ccccc23)n1)C1CCCCC1 (stereo unspecified) | 1.7 µg/mL (≈ 5.08 µM)
8 | CC(C)(C)CNCc1coc(-c2ccc(C(C)(C)C)cc2)n1 | 2.86 µg/mL (≈ 9.52 µM)
9 | CCOc1cccc(-c2nc(CNCCC3CCCN3C)co2)c1 (stereo unspecified) | 1.78 µg/mL and 4.05 µg/mL
10 | C[C@@H]1C(NCc2coc(-c3ccccc3Br)n2)C[C@H]2C[C@@H]1C2(C)C (stereo partly specified) | 1.95 µg/mL (≈ 5.01 µM)

Same assay, conditions: Trypanosoma brucei, SBRI 427; read-out: IC50

Row | Structure (SMILES) | IC50 [µg/mL]
11 | CCOc1ccc(-c2nc(Cn3nc(N)cc3C)co2)cc1 | 2.11 (≈ 7.07 µM)
12 | CSc1ccc(Oc2ccc(/C(=N/O)NCc3ccccc3F)cn2)cc1 | 1.6 (≈ 4.17 µM)
13 | O/N=C(\Nc1ccccc1)c1cccnc1OCc1ccccc1 | 1.26 (≈ 3.95 µM)
14 | CCOc1ccccc1-c1nc(CNC2CCCCCCCCCCC2)co1 | 1.51 (≈ 3.93 µM)
15 | COc1ccc(Oc2ncccc2/C(=N/O)NC2CCc3ccccc32)cc1 (stereo unspecified) | 1.51 (≈ 4.02 µM)
16 | CC1CCC(N/C(=N\O)c2ccc(Oc3ccc(Cl)cc3)nc2)CC1 (stereo unspecified) | 1.42 (≈ 3.95 µM)
17 | CC(C)COc1ncccc1/C(=N/O)NC1CCC(C)CC1 (stereo unspecified) | 2.25 (≈ 7.37 µM)
18 | COc1ccc(Oc2ncccc2/C(=N/O)NCc2ccccc2C)cc1 | 2.36 (≈ 6.49 µM)
19 | CCC(CC)N/C(=N\O)c1ccc(C)nc1Oc1cccc(F)c1 | 1.56 (≈ 4.71 µM)
20 | COc1ccc(-c2nc(CNC3CCN(Cc4ccccc4)CC3)co2)cc1 | 2.92 (≈ 7.74 µM)
21 | CC(C)COc1ncccc1/C(=N/O)NC1CCCCC1 | 2.18 (≈ 7.48 µM)
22 | CCOc1ccc(-c2nc(CNC(C)C3CCCCC3)co2)cc1 (stereo unspecified) | 1.44 (≈ 4.38 µM)
23 | COc1cccc(Oc2ccc(/C(=N/O)NC3CCCCC3)cn2)c1 | 1.23 (≈ 3.6 µM)
24 | COc1ccc(Oc2ncccc2/C(=N/O)NCc2ccccc2OC)cc1 | 2.37 (≈ 6.25 µM)
25 | Cc1ccc(/C(=N/O)N2CCCc3ccccc32)c(Oc2cccc(F)c2)n1 | 2.54 (≈ 6.73 µM)
26 | O/N=C(/c1ccc(Oc2ccc(Cl)cc2)nc1)N1CCC2CCCCC2C1 (stereo unspecified) | 1.24 (≈ 3.21 µM)
27 | CCOc1ccccc1CN/C(=N\O)c1cccnc1Oc1ccc(OC)cc1 | 1.44 (≈ 3.66 µM)
28 | Cc1cccc(Oc2nc(C)ccc2/C(=N/O)NCC(C)C)c1 | 1.67 (≈ 5.33 µM)
29 | Cc1ccc(/C(=N/O)NCc2ccccc2F)c(Oc2cc(Cl)ccc2Cl)n1 | > 5
30 | CCOc1ccccc1CN/C(=N\O)c1ccc(C)nc1Oc1ccc(C)cc1C | 2.99 (≈ 7.37 µM)
31 | O/N=C(\NCc1c(F)cccc1F)c1cccnc1Oc1ccccc1 | 1.58 (≈ 4.45 µM)
32 | CC(C)(C)c1ccc(-c2nc(CNCC3CC3)co2)cc1 | 1.22 (≈ 4.29 µM)
33 | C[C@@H]1C(NCc2coc(-c3cccc4ccccc34)n2)C[C@H]2C[C@@H]1C2(C)C (stereo partly specified) | 0.94 (≈ 2.61 µM)
34 | COc1ccccc1CN/C(=N\O)c1ccc(C)nc1Oc1cc(Cl)ccc1Cl | 3.98 (≈ 9.21 µM)

Row | Structure (SMILES) | IC50 [µg/mL]
35 | CC(C)c1cccc(Oc2ccc(/C(=N/O)NCc3ccncc3)cn2)c1 | 2.64 (≈ 7.28 µM)
36 | Cc1ccc(/C(=N/O)NC2CC(C)CC(C)(C)C2)c(OCC(C)C)n1 (stereo unspecified) | 1.77 (≈ 5.09 µM)
37 | Cc1ccc(/C(=N/O)NC2CCCC2)c(Oc2cc(Cl)ccc2Cl)n1 | 0.4 (≈ 1.05 µM)
38 | CC(C)COc1ncccc1/C(=N/O)NC1CCC1 | 1.41 (≈ 5.35 µM)
39 | CC(C)c1cccc(Oc2ccc(/C(=N/O)N(C)Cc3cccnc3)cn2)c1 | 2.5 (≈ 6.64 µM)
40 | CSc1ccc(Oc2ccc(/C(=N/O)NC3CCC(C)CC3)cn2)cc1 (stereo unspecified) | 1.35 (≈ 3.63 µM)
41 | O/N=C(\NCc1cccs1)c1ccc(Oc2cccc(F)c2)nc1 | 1.93 (≈ 5.62 µM)
42 | Cc1ccc(CN/C(=N\O)c2cccnc2Oc2cc(Cl)ccc2Cl)o1 | 1.67 (≈ 4.26 µM)
43 | CCC(CC)N/C(=N\O)c1ccc(Oc2cc(Cl)ccc2Cl)nc1 | 1.35 (≈ 3.67 µM)
44 | Cc1ccc([C@@H](C)NCc2coc(-c3cccc4ccccc34)n2)cc1 | 1.86 (≈ 5.43 µM)
45 | CCC(CC)N/C(=N\O)c1ccc(C)nc1Oc1ccc(F)c(Cl)c1 | > 5
46 | CC1(C)[C@H]2CC[C@@H](CNCc3coc(-c4ccc(F)cc4)n3)[C@@H]1C2 | > 5
47 | CN(Cc1coc(-c2cccc3ccccc23)n1)C1CCCCC1 | 2.01 (≈ 6.27 µM)
48 | Cc1ccc(Oc2ncccc2/C(=N/O)NCc2ccccc2)c2c1CCC2 | 1.28 (≈ 3.43 µM)
49 | O/N=C(\NCC1CCCCC1)c1ccc(Oc2ccc(Cl)cc2)nc1 | 1.6 (≈ 4.45 µM)
50 | CC(C)N/C(=N\O)c1cccnc1OCC(C)(C)C | 0.9 (≈ 3.39 µM)
51 | CCC(CC)N/C(=N\O)c1cccnc1OCc1ccccc1 | 0.51 (≈ 1.63 µM)
52 | CCN(CCN(C)C)Cc1coc(-c2ccc(C(C)(C)C)cc2)n1 | 3.09 (≈ 9.38 µM)
53 | COc1ccc(-c2nc(CNCCCN3CCCCC3C)co2)cc1 (stereo unspecified) | > 5
54 | Cc1ccc(-c2nc(Cn3nc(N)cc3C)co2)cc1 | > 5
55 | Cc1cccc(Oc2nc(C)ccc2/C(=N/O)NCC(C)(C)C)c1 | 0.32 (≈ 0.977 µM)
56 | COc1cccc(Oc2ccc(/C(=N/O)NCC3CCCCC3)cn2)c1 | 2.15 (≈ 6.05 µM)
57 | Cc1ccc(Oc2cc(/C(=N/O)NCC(C)(C)C)ccn2)c(C)c1 | 0.36 (≈ 1.1 µM)
58 | CCOc1ccccc1CN/C(=N\O)c1cccnc1Oc1ccc(Cl)cc1 | 2.13 (≈ 5.35 µM)

Row | Structure (SMILES) | IC50 [µg/mL]
59 | C=CCc1ccc(Oc2ccc(/C(=N/O)NCc3ccncc3)cn2)c(OC)c1 | 2.1 (≈ 5.38 µM)
60 | Cc1ccc(-c2nc(CN(Cc3ccccn3)Cc3ccccn3)co2)cc1 | > 5
61 | Cc1ccccc1CN/C(=N\O)c1cccnc1Oc1cccc(C)c1C | 3.57 (≈ 9.88 µM)
62 | O/N=C(\NCC1CC1)c1cccnc1OCc1ccccc1 | 0.61 (≈ 2.05 µM)
63 | O/N=C(\NCC1CCCCC1)c1ccc(Oc2cc(Cl)ccc2Cl)nc1 | 2.81 (≈ 7.13 µM)
64 | CC1CCc2ccccc2N1/C(=N\O)c1cccnc1OCC(C)(C)C (stereo unspecified) | 0.66 (≈ 1.87 µM)
65 | Cc1cc(C)cc(CN/C(=N\O)c2cccnc2OCC(C)C)c1 | 1.94 (≈ 5.92 µM)
66 | CCC(CC)N/C(=N\O)c1ccc(Oc2ccc(Cl)cc2)nc1 | 1.63 (≈ 4.88 µM)
67 | CCC1CCCCN1Cc1coc(-c2cccc3ccccc23)n1 (stereo unspecified) | 2.13 (≈ 6.65 µM)
68 | Clc1ccc(-c2nc(CNCCCn3ccnc3)co2)c(Cl)c1 | 2.02 (≈ 5.75 µM)
69 | COc1cc(C)ccc1Oc1nc(C)ccc1/C(=N/O)NCc1ccccc1 | 0.77 (≈ 2.04 µM)
70 | Cc1ccc(/C(=N/O)NCC(C)C)c(Oc2cccc(F)c2)n1 | 1.37 (≈ 4.32 µM)
71 | CC(NCc1coc(-c2cccc3ccccc23)n1)C1CCCCC1 (stereo unspecified) | 1.34 (≈ 4.01 µM)
72 | Cc1ccc(/C(=N/O)N(C)c2ccccc2)c(Oc2cccc(F)c2)n1 | 1.34 (≈ 3.81 µM)
73 | CCC(CC)N/C(=N\O)c1ccc(C)nc1Oc1cc(Cl)ccc1Cl | 3.35 (≈ 8.76 µM)
74 | CCN(CC)CCCC(C)NCc1coc(-c2ccccc2Cl)n1 (stereo unspecified) | > 5
75 | c1ccc2c(-c3nc(CNCCCN4CCCC4)co3)cccc2c1 | 0.62 (≈ 1.85 µM)
76 | Cc1ccc(/C(=N/O)NCC(C)(C)C)c(OCc2cccc(F)c2)n1 | 2.11 (≈ 6.11 µM)
77 | COc1ccc(Oc2ncccc2/C(=N/O)NCC2CCCCC2)cc1 | 1.96 (≈ 5.51 µM)
78 | Cc1ccc(/C(=N/O)NCc2cc(F)cc(F)c2)c(Oc2cc(Cl)ccc2Cl)n1 | 2.52 (≈ 5.75 µM)
79 | COc1cccc(Oc2ccc(/C(=N/O)NC3CCC(C)CC3)cn2)c1 (stereo unspecified) | 1.97 (≈ 5.54 µM)
80 | CC1CCCCN1CCCNCc1coc(-c2cccc3ccccc23)n1 (stereo unspecified) | 2.07 (≈ 5.69 µM)
81 | C[C@H]1C(NCc2coc(-c3cccc4ccccc34)n2)C[C@@H]2C[C@H]1C2(C)C (stereo partly specified) | 0.9 (≈ 2.5 µM)
82 | O/N=C(\NC1CCC1)c1cccnc1Oc1ccccc1OCc1ccccc1 | 1.39 (≈ 3.57 µM)

Row | Structure (SMILES) | IC50 [µg/mL]
83 | CCc1ccc(Oc2ncccc2/C(=N/O)NC(C)COC)cc1 (stereo unspecified) | 2.17 (≈ 6.59 µM)
84 | NCCc1cn(Cc2coc(-c3ccc(Cl)cc3Cl)n2)cn1 | 4.34 (≈ 12.9 µM)
85 | COc1ccc(Oc2nc(C)ccc2/C(=N/O)NC2CCCC2)cc1 | 1.33 (≈ 3.9 µM)
86 | COc1cccc(-c2nc(CNC34C[C@H]5C[C@@H](C3)C[C@@H](C4)C5)co2)c1 | > 5
87 | Cc1ccc(/C(=N/O)NCC2CCCO2)c(Oc2cc(Cl)ccc2Cl)n1 (stereo unspecified) | > 5
88 | CC(C)(C)CNCc1coc(-c2ccc(C(C)(C)C)cc2)n1 | 1.62 (≈ 5.39 µM)
89 | CSCCN/C(=N\O)c1cccnc1Oc1c(F)cccc1F | 4.81 (≈ 14.2 µM)
90 | COc1cccc(-c2nc(Cn3ccnc3C=O)co2)c1 | > 5
91 | O/N=C(\NC1CCCCC1)c1ccc(Oc2cc(Cl)ccc2Cl)nc1 | 1.3 (≈ 3.42 µM)
92 | O/N=C(\NC1CCc2ccccc21)c1cccnc1Oc1c(F)cccc1F (stereo unspecified) | 1.7 (≈ 4.46 µM)
93 | CC1CCC(C)N1/C(=N\O)c1cccnc1OCC(C)(C)C (stereo unspecified) | 1.25 (≈ 4.09 µM)
94 | COc1ccc(Oc2ncccc2/C(=N/O)NCc2cc(C)cc(C)c2)cc1 | 2.32 (≈ 6.15 µM)
95 | CCOc1ccccc1CN/C(=N\O)c1cccnc1Oc1cc(Cl)ccc1Cl | 0.66 (≈ 1.53 µM)
96 | O/N=C(/c1cccnc1Oc1cccc(C(F)(F)F)c1)N1CCN(C2CCCC2)CC1 | 2.33 (≈ 5.36 µM)
97 | Cc1ccc(/C(=N/O)NCC(C)(C)C)c(Oc2cccc(F)c2)n1 | 0.45 (≈ 1.36 µM)
98 | COc1ccc(Oc2ncccc2/C(=N/O)NCc2ccccc2)cc1 | 3.01 (≈ 8.62 µM)
99 | COc1ccc(-c2nc(CNC[C@@H]3CC[C@H]4C[C@@H]3C4(C)C)co2)cc1 | 1.31 (≈ 3.85 µM)
100 | C[C@@H]1C(NCc2coc(-c3ccccc3Br)n2)C[C@H]2C[C@@H]1C2(C)C (stereo partly specified) | 1.22 (≈ 3.13 µM)
101 | Cc1cccc(Oc2nc(C)ccc2/C(=N/O)NC2CCCCC2)c1 | 1.24 (≈ 3.65 µM)
102 | Cc1ccc(-c2nc(CNC34C[C@H]5C[C@@H](C3)C[C@@H](C4)C5)co2)cc1 | 3.86 (≈ 12 µM)
103 | O/N=C(\NCc1cccs1)c1cccnc1Oc1ccc2oc3ccccc3c2c1 | 2.45 (≈ 5.9 µM)
104 | CCN(CC)CCCNCc1coc(-c2cccc(C)c2)n1 | 3.36 (≈ 11.1 µM)
105 | COCCN/C(=N\O)c1cccnc1Oc1ccc(C)c2c1CCC2 | 1.77 (≈ 5.18 µM)
106 | O/N=C(\NC1CCCC1)c1ccc(Oc2ccc(Cl)cc2)nc1 | 1.32 (≈ 3.98 µM)
